Residues, ends and D or L forms follow the SMILES beside them.
Tests used:
Type in all cases: cell-based
K. pneumoniae CPE = assay: chequerboard assay (OD600, FIC) against K. pneumoniae CPE; conditions: agent alone
P. aeruginosa = assay: chequerboard assay (percentage of positive control, MIC, FIC) against P. aeruginosa; conditions: for MIC: Pseudomonas aeruginosa, read-out: MIC Monotherapy (X)
Source text: (§1) FICI or fractional inhibitory concentration index is the sum of the FICs of each antimicrobial when used in combination. The FIC or fractional inhibitory concentration of an antimicrobial in a combination, is the MIC of the antimicrobial in the combination divided by the MIC of the same antimicrobial when used alone. Minimum inhibitory concentrations are defined in the art as the lowest concentration of an antimicrobial that will inhibit the visible growth of a microorganism after overnight incubation.
(§2) In the method for a 3-mer combination, one antibiotic was “fixed” as part of a backbone whilst the two other antibiotics were varied over a doubling concentration scale beginning at the MIC (×1) for the effective dose in monotherapy against the organism being tested. The ΣFIC was then calculated as shown below. In the method for a 4-mer combination, two antibiotics were “fixed” as part of a backbone whilst the two other antibiotics were varied over a doubling concentration scale beginning at the MIC (×1) for the effective dose in monotherapy against the organism being tested.
(§3) The ΣFIC was divided by “0.5/n” where n=number of antimicrobials in the combination to provide FIC. The inventors opted for this expression because it more closely aligns with the 2-mer synergy levels. The same FIC scale as used for 2-mers was applied: synergy is observed when FIC is <0.5. An “Additive” effect is observed when FIC is 0.5 to <1. Indifference is observed when FIC is 1 to <2. Antagonism is observed when FIC is 2 to 4.
(§4) The antimicrobial agents were sourced from commercially available sources. They were prepared by being weighed and dissolved in water, PBS, DMSO or acidified water to a final concentration from 1-10 mg/mL. Antimicrobial solutions were diluted to 10× highest concentration used in the experiment and subsequently diluted 2× over a series not exceeding 11 serial dilutions. These left the operator with a maximum of 12 different, descending concentrations of the chosen antimicrobials.
(§5) The bacteria were obtained from Ninewells Hospital and Medical School in Dundee, Scotland. They were obtained as patient strains and characterised by Vitek 2 screening. To prepare for the Examples below, the bacteria were grown overnight in Mueller Hinton Cation adjusted broth or until confluent in media with or without supplements. The bacteria were measured for OD600 and readings of <0.25 were returned to the incubator.
(§6) All data herein was produced using the same chequerboard assay.
(§7) 20 μL of antibiotic A (backbone), at a single dilution, was pipetted into all wells of a 96-well plate to be used.
(§8) 20 μL of the lowest concentration of antibiotic B (first variable) was pipetted into column 1 of the 96-well plate. The second concentration (2-fold more concentrate) was pipetted into column 2. This process was repeated until all concentrations of antibiotic B to be used were complete.
(§9) 20 μL of the lowest concentration of antibiotic C (second variable) were pipetted into row A of the 96-well plate. The second concentration (2-fold more concentrate) was pipetted into row B. This process was repeated until all concentrations of antibiotic C to be used were complete.
(§10) 120 μL of sterile media (BHI/MHB2) was added.
(§11) 20 ul of prepared bacterial culture was added.
(§12) Plates were sealed with lids and left to incubate for 16 hours, overnight.
(§13) Plates were read at OD600 in a 96-well plate reader. These are the values reported in the chequerboards below.
(§14) As a tri-mer combination, two antibiotic concentrations were varied while one remained constant, the latter is the “backbone”. For the 4-mer combination, two antibiotic concentrations were varied while two remained constant, the latter is the “backbone”. This method is explained above along with the calculation of the FICI and the indicative value for synergy, indifference and antagonism.
The method was identical to Comparative Example 1, except the isolate was P. aeruginosa.

A. baumannii = assay: chequerboard assay (percentage of positive control, MIC, FIC) against A. baumannii; conditions: for concentration up to which the isolate was resistant to the agent / MIC: A. baumannii isolate, agent alone; for MIC: Acinetobacter baumannii, read-out: MIC Monotherapy (X)
Source text: as §1, §2, §3, §4, §5, §6, §7, §8, §9, §10, §11, §12, §13, §14
The method was identical to Comparative Example 1. The isolate was A. baumannii.

ESBL E. coli = assay: chequerboard assay (OD600, MIC, FIC) against ESBL E. coli; conditions: for MIC: Escherichia coli, agent alone, ESBL E. coli isolate, read-out: MIC Monotherapy (X)
Source text: as §1, §2, §3, §4, §5, §6, §7, §8, §9, §10, §11, §12, §13, §14

[1] = system: Methicillin-resistant Staphylococcus aureus (MRSA); assay: chequerboard assay (percentage of positive control, MIC, FIC) against MRSA; conditions: for MIC: Staphylococcus aureus, agent alone, MRSA isolate, read-out: MIC Monotherapy (X)
Source text: as §1, §2, §3, §4, §5, §6, §7, §8, §9, §10, §11, §12, §13, §14
The method was identical to Comparative Example 1. The isolate was Methicillin-resistant Staphylococcus aureus (MRSA).

[2] = agent alone, P. aeruginosa isolate
[3] = agent within AZT + ceftazidime + colistin (Example 17)
[4] = agent within AZT + fosfomycin + colistin (Example 15)
[5] = agent within AZT + meropenem + colistin + fosfomycin (Example 14)
[6] = agent within zidovudine + meropenem + colistin + ceftazidime (Example 13)
[7] = agent within zidovudine + meropenem + colistin + fosfomycin (Example 14)
[8] = agent within AZT + colistin + ceftazidime (Example 17)
[9] = agent within ceftazidime + AZT + doxycycline (Example 3)
[10] = agent within AZT + ceftazidime + meropenem (Example 16)
[11] = agent within ceftazidime + levofloxacin + fosfomycin (Example 18)
[12] = agent within ceftazidime + levofloxacin + meropenem (Example 19)
[13] = P. aeruginosa isolate, agent alone

Compound	MIC (P. aeruginosa; [2])	MIC combination therapy (Y) (P. aeruginosa; [3])	MIC combination therapy (Y) (P. aeruginosa; [4])	Ratio Y:X (P. aeruginosa; [4])	MIC combination therapy (Y) (P. aeruginosa; [6])	MIC combination therapy (Y) (P. aeruginosa; [7])	MIC (A. baumannii)	MIC combination therapy (Y) (A. baumannii; [8])	MIC combination therapy (Y) (A. baumannii; [4])	Ratio Y:X (A. baumannii; [4])	MIC combination therapy (Y) (ESBL E. coli; [9])	MIC combination therapy (Y) (P. aeruginosa; [10])	MIC combination therapy (Y) [1, 11]	MIC combination therapy (Y) [1, 12]	MIC [1]	also measured
CCC(C)CCCC(=O)N[C@@H](CCN)C(=O)N[C@H](C(=O)N[C@@H](CCN)C(=O)N[C@H]1CCNC(=O)[C@H]([C@@H](C)O)NC(=O)[C@H](CCN)NC(=O)[C@H](CCN)NC(=O)[C@H](CC(C)C)NC(=O)[C@@H](CC(C)C)NC(=O)[C@H](CCN)NC1=O)[C@@H](C)O (stereo partly drawn) (HELM PEPTIDE1{[CCC(C)CCCC(=O)[*:2]].[Dab].T.[Dab].[Dab].[Dab].[dL].L.[Dab].[Dab].T}$PEPTIDE1,PEPTIDE1,5:R3-11:R2$$$V2.0)	512 µg/mL	4 µg/mL	0.5 µg/mL	0.000977	2 µg/mL	32 µg/mL	128 µg/mL	32 µg/mL	0.5 µg/mL	0.003906						concentration at which the isolate was resistant to the agent (K. pneumoniae CPE): ≥ 8 mg/L; Ratio Y:X (P. aeruginosa; [3]): 0.007813; Ratio Y:X (P. aeruginosa; agent within AZT + meropenem + colistin + ceftazidime (Example 13)): 0.003906; Ratio Y:X (P. aeruginosa; [5]): 0.0625; concentration up to which the isolate was resistant to the agent (A. baumannii): 64 mg/L; Ratio Y:X (A. baumannii; [8]): 0.25
CC(C)(O/N=C(\C(=O)N[C@@H]1C(=O)N2C(C(=O)[O-])=C(C[n+]3ccccc3)CS[C@H]12)c1csc(N)n1)C(=O)O [Ceftazidime]	512 µg/mL	1 µg/mL			1 µg/mL		512 µg/mL	32 µg/mL			4 µg/mL	0.5 µg/mL	16 µg/mL	1 µg/mL		concentration at which the isolate was resistant to the agent (K. pneumoniae CPE): 4 mg/L
C[C@H]1c2cccc(O)c2C(=O)C2=C(O)[C@]3(O)C(=O)C(C(N)=O)=C(O)[C@@H](N(C)C)[C@@H]3[C@@H](O)[C@@H]21 [Doxycycline]											0.5 µg/mL					MIC (ESBL E. coli): 1 µg/mL
C[C@@H]1O[C@@H]1P(=O)(O)O [Fosfomycin]	256 µg/mL		16 µg/mL	0.125		4 µg/mL	256 µg/mL		32 µg/mL	0.125			2 µg/mL		16 µg/mL	concentration up to which the isolate was resistant to the agent (P. aeruginosa; [13]): 64 mg/L; MIC Monotherapy (X) (P. aeruginosa; [2]): 128 µg/mL; Ratio Y:X (P. aeruginosa; [5]): 0.01562; concentration up to which the isolate was resistant to the agent (A. baumannii): 128 mg/L; Ratio Y:X [1, 11]: 0.125
C[C@H]1COc2c(N3CCN(C)CC3)c(F)cc3c(=O)c(C(=O)O)cn1c23 [Levo, Levofloxacin]													0.125 µg/mL	0.25 µg/mL	1 µg/mL	Ratio Y:X [1, 11]: 0.125; Ratio Y:X [1, 12]: 0.25
C[C@@H](O)[C@H]1C(=O)N2C(C(=O)O)=C(S[C@@H]3CN[C@H](C(=O)N(C)C)C3)[C@H](C)[C@H]12 [Meropenem]	32 µg/mL				2 µg/mL	4 µg/mL						4 µg/mL		4 µg/mL	32 µg/mL	concentration up to which the isolate was resistant to the agent (P. aeruginosa; [13]): 64 mg/L
Cc1cn([C@H]2C[C@H](N=[N+]=[N-])[C@@H](CO)O2)c(=O)[nH]c1=O [Zidovudine, 1-[(2R, 4S, 5S)-4-Azido-5-(hydroxymethyl)oxolan-2-yl]-5-methylpyrimidine-2,4-dione]	512 µg/mL	2 µg/mL	0.5 µg/mL	0.000977	1 µg/mL	1 µg/mL	512 µg/mL	4 µg/mL	0.5 µg/mL	0.000977	0.125 µg/mL	8 µg/mL				MIC (ESBL E. coli): 1 µg/mL; Ratio Y:X (ESBL E. coli; [9]): 0.125; Ratio Y:X (P. aeruginosa; [3]): 0.003906; Ratio Y:X (P. aeruginosa; [10]): 0.01562; Ratio Y:X (P. aeruginosa; [6]): 0.001953; Ratio Y:X (P. aeruginosa; [7]): 0.001953; Ratio Y:X (A. baumannii; [8]): 0.007813
